# From patent US5185352A, “Alkoxy-4(1H)-pyridone derivatives, processes for the preparation thereof and pharmaceutical compositions containing them” (Goedecke Aktiengesellschaft, priority 1988, dated 1993)
# Where a name gives a salt, the structure may show the parent alone.
# Target: calcium- and phospholipid-dependent protein kinase (PKC)
# Assay: Inhibition of the activity of protein kinase C (incorporation of P^32-labelled phosphate into histone H-1)
# Type: biochemical
# Details: PKC enriched from rat brain; histone H-1 substrate; 5 min, 30° C.; pH 7.5
# Excerpt: For the clarification of the inhibiting influence of compounds of formula I according to the present invention on the calcium- and phospholipid-dependent protein kinase (PKC), this enzyme activity was enriched from rat brain. Using the purification steps described in the literature (J. Biol. Chem., 260, 15718-15722/1985), in the case of a purification consisting of two steps, there was utilized the property of the enzyme to bind to cell membranes in the presence of calcium and to be dissolved off again by calcium chelators (EGTA). In the first enrichment step, there took place the binding of the PKC to membranes of the rat brain and in the second step on so-called inside-out vesicles or erythrocytes. After dissolving off from the erythrocyte membranes and rebuffering, the PKC preparation was present in 10 mM HEPES, 1 mM DTT, 0.1% PEG 20000, pH 7.5. Under these conditions, it could be stored at -70° C. for several months without loss of activity.
# The activity of the enzyme was determined via the incorporation of P^32 -labelled phosphate into the protein histone H-1 (Sigma Type III) which can be phosphorylated by PKC.
# The test thereby contains the following components: 50 mM HEPES-NaOH (pH 7.5), 5 mM magnesium chloride, 1 mM DTT, 4 μm. free calcium ions, 10 μMaTP, 1 μg phosphatidylserine, 0.2 μg 1,2-diolein, as well as 40 μg histone H-1 and optionally the test substance.
# The batch is preincubated for 4 minutes at 30° C. and the reaction then started by the addition of 5 nM PKC. After incubating for 5 minutes at 30° C., the reaction is stopped with 10% TCA and the samples then filtered off. The phosphate incorporation is determined by Cerenkov counting in a scintillation counter. The kinase activity measured in the absence of the test substance was, in each case, taken as being 100% and the inhibiting action of the compounds of formula I referred thereto as percentages.
row,SMILES,IC50
1,CCCCCCCCCCCCCCCCCCOc1cn(Cc2ccc(O)cc2)c(CNCCCN(C)C)cc1=O [Example 84],3.4 µM
2,"CCCCCCCCCCCCCCCCCCOc1cn(C(C)c2ccccc2)c(CN2CCN(Cc3ccccc3)CC2)cc1=O (single isomer, unassigned; (-)) [Example 99, (-)-1-[(5-Octadecyloxy-1-(1-phenylethyl)-4(1H)-pyridone-2-yl)-methyl]-4-benzylpiperazine]",5.2 µM
3,"CCCCCCCCCCCCCCCCCCOc1cn(-c2ccc(OCc3ccccc3)cc2)c(CNCCCN(C)C)cc1=O [Example 80, 1-(4-Benzyloxyphenyl)-2-[N-(3-dimethylaminopropyl)aminomethyl]-5-octadecyloxy-4(1H)-pyridone·difumarate·2,5 H2 O]",2.6 µM
4,CCCCCCCC/C=C\CCCCCCCCOc1cn(Cc2ccccc2)c(CNCCCN(C)C)cc1=O [Example 78],4.6 µM
5,"CCCCCCCCCCCCCCCCCCOc1cn(CC2CCCCC2)c(COCCCN(C)C)cc1=O [Example 108, 1-Cyclohexylmethyl-2-(3-dimethylaminopropoxymethyl)-5-octadecyloxy-4(1H)-pyridone oxalate]",2.9 µM
6,"CCCCCCCCCCCCCCCCCCOc1cn(-c2ccc(OCc3ccccc3)cc2)c(CNCCCN(C)C)cc1=O [Example 79, 1-(4-Benzyloxyphenyl)-2-[N-(3-dimethylaminopropyl)aminomethyl]-5-octadecyloxy-4(1H)-pyridone]",2.2 µM
7,"CCCCCCCCCCCCCCCCCCOc1cn(-c2ccc(O)cc2)c(CNCCCN(C)C)cc1=O [Example 85, 2-[N-(3-Dimethylaminopropyl)aminomethyl]-1-(4-hydroxyphenyl)-5-octadecyloxy-4(1H)-pyridone·trihydrochloride·0,5 H2 O]",5.8 µM
8,"CCCCCCCCCCOc1cn(Cc2ccccc2)c(CN2CCN(CCc3ccccc3)CC2)cc1=O [Example 95, 1-[(1-Benzyl-5-decyloxy-4(1H)-pyridone-2-yl)-methyl]4-(2-phenylethyl)piperazine·dihydrochloride]",4.3 µM
9,"CCCCCCCCCCCCCCCCCCOc1cn(Cc2ccccc2)c(CN2CCNCC2C)cc1=O (racemic) [Example 102, (±)-1-[(1-Benzyl-5-octadecyloxy-4(1H)-pyridon-2-yl)methyl]-2-methylpiperazine fumarate]",2 µM
10,"CCCCCCCCCCCCCCCCCCOc1cn(Cc2ccccc2)c(CNCCCCN)cc1=O [Example 77, 2-[N-(4-Aminobutyl)aminomethyl]-1-benzyl-5-octadecyloxy-4(1H)-pyridone trihydrochloride]",2.3 µM
11,"CCCCCCCCCCCCCCOc1cn(Cc2ccccc2)c(CNCCCN(C)C)cc1=O [Example 65, 1-Benzyl-2-[N-(3-dimethylaminopropyl)aminomethyl]-5-tetradecyloxy-4(1H)-pyridone dioxalate monohydrate]",6.5 µM
12,"CCCCCCCCCCCCCCCCCCOc1cn(C)c(CNCCCN)cc1=O [Example 60, 2-[N-(3-Aminopropyl)-aminomethyl]-1-methyl-5-octadecyloxy-4(1H)-pyridone trihydrochloride]",2.7 µM
13,"CCCCCCCCCCCCCCCCCCOc1cn(CC2CCCCC2)c(CNCCCN(C)C)cc1=O [Example 68, 1-Cyclohexylmethyl-2-[N-(3-dimethylaminopropyl)aminomethyl]-5-octadecyloxy-4(1H)-pyridone difumarate]",1.9 µM
14,"CCCCCCCCCCCCCCCCCCOc1cn(Cc2ccccc2OC)c(CNCCCN(C)C)cc1=O [Example 74, 2-[N-(3-Dimethylaminopropyl)aminomethyl]-1-(2-methoxybenzyl)-5-octadecyloxy-4(1H)-pyridone difumarate]",2.1 µM
15,"CCCCCCCCCCCCCCCCCCOc1cn(Cc2ccc(OC)cc2)c(COCCCN(C)C)cc1=O [Example 107, 2-(3-Dimethylaminopropoxymethyl)-1-(4-methoxybenzyl)-5-octadecyloxy-4(1H)-pyridone dihydrochloride 1/4 hydrate]",2.9 µM
16,"CCCCCCCCCCCCCCCCCCOc1cn(Cc2ccc(OC)cc2)c(CNCCCN(C)C)cc1=O [Example 72, 2-[N-(3-Dimethylaminopropyl)aminomethyl]-1-(4-methoxybenzyl)-5-octadecyloxy-4(1H)-pyridone trihydrochloride monohydrate]",3.6 µM
17,"CCCCCCCCCCCCCCCCCCOc1cn(Cc2ccc(Cl)cc2)c(COCCCN(C)C)cc1=O [Example 109, 1-(4-Chlorobenzyl)-2-(3-dimethylaminopropoxymethyl)-5-octadecyloxy-4(1H)-pyridone dihydrochloride 2.5 hydrate]",2.6 µM
18,"CCCCCCCCCCCCCCCCCCCCOc1cn(Cc2ccccc2)c(CNCCCN(C)C)cc1=O [Example 66, 1-Benzyl-2-[N-(3-dimethylaminopropyl)aminomethyl]-5-eicosanyloxy-4(1H)-pyridone dioxalate monohydrate]",2.5 µM
19,"CCCCCCCCCCCCCCCCCCOc1cn(CCC)c(CNCCCN(C)C)cc1=O [Example 59, 2-[N-(3-Dimethylaminopropyl)aminomethyl]-5-octadecyloxy-1-propyl-4(1H)-pyridone dioxalate]",2.9 µM
20,"CCCCCCCCCCCCCCCCCCOc1cn(CCC)c(COCCCN(C)C)cc1=O [Example 105, 2-(3-Dimethylaminopropoxymethyl)-5-octadecyloxy-1-propyl-4(1H)-pyridone dihydrochloride 3/4 hydrate]",2 µM
21,"CCCCCCCCCCCCCCCCCCOc1cn(CCCN(C)C)c(CO)cc1=O [Example 21, 1-(3-Dimethylaminopropyl)-2-hydroxymethyl-5-octadecyloxy-4(1H)-pyridone]",2.4 µM

# Other lines, results leading:
row,IC50,SMILES
1,5.4 µM,"CCCCCCCCCCCCCCCCCCOc1cn(C(C)c2ccccc2)c(CN2CCN(Cc3ccccc3)CC2)cc1=O (racemic) [Example 98, (±)-1-[(5-Octadecyloxy-1-(1-phenylethyl)-4(1H)-pyridone-2-yl)-methyl]-4-benzylpiperazine]"
2,1.8 µM,"CCCCCCCCCCCCCCCCCCOc1cn(Cc2ccccc2)c(CN(C)CCCN(C)C)cc1=O [Example 89, 1-Benzyl-2-[N-(3-dimethylaminopropyl)-N-methylaminomethyl]-5-octadecyloxy-4(1H)-pyridone trihydrochloride]"
3,9 µM,"CCCCCCCCCCCCCCCCCCOc1cn(Cc2ccccc2)c(CCC(=O)OC)cc1=O [Example 114, Methyl 3-[1-benzyl-5-octadecyloxy-4(1H)-pyridon-2-yl]-propionate]"
4,9.5 µM,"CCCCCCCCCCCCCCCCCCOc1cn(Cc2ccccc2)c(CN(C)Cc2ccccc2)cc1=O [Example 75, 1-Benzyl-2-(N-benzyl-N-methylaminomethyl)-5-octadecyloxy-4(1H)-pyridone]"
5,2.6 µM,"CCCCCCCCCCCCCCCCCCOc1cn(Cc2ccccc2)c(CNCCCNC(C)c2ccccc2)cc1=O (racemic) [Example 83, (±)-1-Benzyl-5-octadecyloxy)-2-{N-[3-(1-phenylethyl)aminopropyl]-aminomethyl}-4(1H)-pyridone·trihydrochloride]"
6,2.1 µM,"CCCCCCCCCCCCCCCCCCOc1cn(Cc2ccccc2)c(CNCCCN)cc1=O [Example 61, 2-[N-(3-Aminopropyl)-aminomethyl]-1-benzyl-5-octadecyloxy-4(1H)-pyridone trihydrochloride]"
7,9 µM,"CCCCCCCCCCCCCCCCCCOc1cn(Cc2ccccc2)c(CCC(N)=O)cc1=O [Example 116, 3-[1-benzyl-5-octadecyloxy-4(1H)-pyridon-2-yl]-propionic acid amide]"
8,4.4 µM,"CCCCCCCCCCCCCCCCCCOc1cn(Cc2ccccc2)c(CN2CCN(C(C)c3ccccc3)CC2)cc1=O (racemic) [Example 97, (±)-1-[(1-Benzyl-5-octadecyloxy-4(1H)-pyridone-2-yl)methyl]-4-(1-phenylethyl)piperazine·trihydrochloride 3/4 H2 O]"
9,5.5 µM,"CCCCCCCCCCCCCCCCCCOc1cn(Cc2ccccc2)c(CN2CCN(Cc3ccccc3)CC2)cc1=O [Example 93, 1-[(1-Benzyl-5-octadecyloxy-4(1H)-pyridone-2-yl)methyl]-4-benzylpiperazine·dioxlate·1/2 H2 O]"
10,4.4 µM,"CCCCCCCCCCCCCCCCCCOc1cn(Cc2ccccc2)c(CN(C)C)cc1=O [Example 73, 1-Benzyl-2-dimethylaminomethyl-5-octadecyloxy-4(1H)-pyridone oxalate hemihydrate]"
11,1.9 µM,"CCCCCCCCCCCCCCCCCCOc1cn(Cc2ccccc2)c(CN(C)CCN(C)C)cc1=O [Example 57, 1-Benzyl-2-[N-(2-dimethylaminoethyl)-N-methylaminomethyl]-5-octadecyloxy-4(1H)-pyridone trihydrochloride]"
12,2.7 µM,"CCCCCCCCCCCCCCCCCCOc1cn(C(C)c2ccccc2)c(CN2CCN(Cc3ccccc3)CC2)cc1=O (single isomer, unassigned; (+)) [Example 100, (+)-1-[(5-Octadecyloxy-1-(1-phenylethyl)-4(1H)-pyridone-2-yl)-methyl]-4-benzylpiperazine]"
